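Values below derive from 48-hour exposures of cells grown in 96-well plates, with endpoints linearly interpolated between the two concentrations bracketing the appropriate inhibition level. GI50 is the concentration that inhibits growth by half.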 The source made the active and inactive calls. Rule as the data show it: active = GI50 up to about 1.1 µM and inactive = higher.
Legend:
Experiment in all cases: NCI tumour cell line growth inhibition, 48 h
SF-268 = system: SF-268
UO-31 = system: UO-31
K562 = system: K562
HCT-116 = system: HCT-116
NCI-H23 = system: NCI-H23
HOP-92 = system: HOP-92
NCI-H460 = system: NCI-H460
T47D = system: T47D
A498 = system: A498
EKVX = system: EKVX
M14 = system: M14
TK-10 = system: TK-10
SR = system: SR
RXF 393 = system: RXF 393
DU-145 = system: DU-145
SW-620 = system: SW-620
RPMI-8226 = system: RPMI-8226
KM12 = system: KM12
OVCAR-8 = system: OVCAR-8
OVCAR-3 = system: OVCAR-3

Measured: GI50

CCOC(=O)/C(=C\NCc1ccc2c(c1)OCO2)c1nc2ccccc2[nH]1
inactive: SF-268 61.4 µM | UO-31 79.4 µM | K562 52.2 µM | HCT-116 39.8 µM | NCI-H23 25.6 µM | HOP-92 71.9 µM | NCI-H460 24.9 µM | T47D 35.9 µM | A498 > 100 µM | EKVX > 100 µM | M14 47.2 µM | TK-10 22.8 µM | SR 48.1 µM | RXF 393 > 100 µM | DU-145 > 100 µM | SW-620 98.2 µM | RPMI-8226 25.5 µM | KM12 42.7 µM | OVCAR-8 43 µM | OVCAR-3 43 µM

Oc1ccc2ccccc2c1-c1c(Nc2ccccc2)ccc2ccccc12
inactive: SF-268 16.7 µM | UO-31 15.7 µM | K562 13.7 µM | HCT-116 11.6 µM | NCI-H23 15.6 µM | HOP-92 1.32 µM | NCI-H460 15.4 µM | T47D 18.8 µM | A498 18.1 µM | EKVX 16.9 µM | M14 11.7 µM | TK-10 16.9 µM | SR 16 µM | RXF 393 17.2 µM | DU-145 17.3 µM | SW-620 11.4 µM | RPMI-8226 17.8 µM | KM12 17.9 µM | OVCAR-8 16.6 µM | OVCAR-3 9.4 µM

COc1ccc(/C=N/n2c(Cc3ccccc3)n[nH]c2=O)c(OC)c1
inactive: SF-268 15.5 µM | UO-31 > 42.8 µM | K562 > 100 µM | HCT-116 26.2 µM | NCI-H23 29.4 µM | HOP-92 24.2 µM | NCI-H460 > 50.7 µM | T47D > 100 µM | A498 44.4 µM | EKVX > 57.9 µM | M14 51.8 µM | TK-10 27.3 µM | SR > 100 µM | RXF 393 9.98 µM | DU-145 > 100 µM | SW-620 > 85.9 µM | RPMI-8226 > 100 µM | KM12 > 100 µM | OVCAR-8 24.7 µM | OVCAR-3 > 63.5 µM

COc1ccc2nccc(SCC(=O)O)c2c1
inactive: SF-268 > 100 µM | UO-31 > 100 µM | K562 > 100 µM | HCT-116 > 100 µM | NCI-H23 > 100 µM | HOP-92 > 100 µM | NCI-H460 > 100 µM | T47D > 100 µM | A498 > 100 µM | EKVX > 100 µM | M14 > 100 µM | TK-10 > 100 µM | SR > 100 µM | RXF 393 > 100 µM | DU-145 > 100 µM | SW-620 > 100 µM | RPMI-8226 > 100 µM | KM12 > 100 µM | OVCAR-8 > 100 µM | OVCAR-3 > 100 µM

Cc1oc2c(c1C(=O)c1ccccc1)C(=O)c1ccccc1C2=O
inactive: SF-268 10.8 µM | UO-31 9.75 µM | K562 2.23 µM | HCT-116 3.3 µM | NCI-H23 2.01 µM | HOP-92 2.21 µM | NCI-H460 9.38 µM | T47D 3.83 µM | A498 19.7 µM | EKVX 12.6 µM | M14 4.28 µM | TK-10 19.1 µM | SR 3.24 µM | RXF 393 3.48 µM | DU-145 11.8 µM | SW-620 1.92 µM | RPMI-8226 2.85 µM | KM12 6.55 µM | OVCAR-8 5.06 µM | OVCAR-3 2.26 µM
